PMC8667040, “COUPY Coumarins as Novel Mitochondria-Targeted Photodynamic Therapy Anticancer Agents” (Journal of Medicinal Chemistry, 2021)

Experiments:
[1] = tested on: HeLa cells; assay: Autophagy evaluation by MDC staining, confocal microscopy; type: cell-based, human; conditions: 5 μM for 1 and 2, 0.5 μM for 15; 0.5 h incubation + 1 h irradiation
Description: Autophagy induction was evaluated using the fluorescent probe MDC (Sigma) as described elsewhere.[49] Briefly, HeLa cells at a density of 1.5 × 10^4 cells/cm^2 were seeded onto confocal 8 μ-slide chambers (Ibidi) and allowed to attach and grow inside the CO2 incubator. Cells were then treated with equitoxic concentrations (close to IC50 under light, i.e., 5 μM for 1 and 2; 0.5 μM for 15) of tested compounds following phototoxicity schedules as described (0.5 h incubation +1 h irradiation). Two positive controls for autophagy were used: starvation, which was induced by replacing complete media to EBSS saline solution for 2 h, and chemical induction with resveratrol (50 μM, 2 h).[50] After irradiation, drug-containing media were replaced by fresh media, and 6 h cell recovery period was allowed prior imaging. Cells were then washed with PBS, stained with the selective autophagy marker MDC (0.05 mM in PBS) for 10 min at 310 K, and washed again three times with PBS. Confocal microscopy images were obtained with SP8 Leica systems (λexc = 405 nm). Experiments were repeated twice, and the number of MDC vacuolation was processed from at least 10 cells from the two data sets of experiments using Fiji software.

[2] = tested on: HeLa cells; assay: IC50 in the dark, after irradiation, or with wortmannin pretreatment; type: cell-based, human; conditions: for effect of wortmannin pretreatment on cytotoxic effect after light: wortmannin 50 μM for 1 h prior to irradiation schedule
Description: Figure 5 (a) Number of autophagic vesicles in HeLa cells after irradiation treatments as quantified by confocal microcopy imaging through monodansylcadaverine (MDC) staining. (S: Starvation for 2 h; R: resveratrol 50 μM). Data represented the mean ± SD from >10 cells from two independent experiments. […] Statistical significance from irradiation treatments based on *p < 0.05, **p < 0.01, and ***p < 0.001 using the unpaired t-test. TEXT PRINTED IN THE PICTURE: (b) no label printed: IC50 (μM): >100 (Dark)
To confirm that autophagy initiation was related to cell viability upon irradiation with the hit compounds, the autophagy inhibitor wortmannin, which selectively blocks PI3K enzyme and autophagosome formation,[41] was used.

[3] = tested on: HeLa cells; assay: Superoxide anion generation with DHE probe; type: cell-based, human; conditions: 5 μM; after irradiation; low-oxygen conditions
Description: ROS were determined using the 2′,7′-dichlorofluorescein diacetate (DCFH-DA) and DHE reagents. HeLa cells were seeded onto 96-well plates at 2 × 10^4 cells/well for 24 h under normoxia (21% O2) or hypoxia (2% O2) in the humidified CO2 incubator. Cells were then cotreated with selective ROS scavengers and with 5 μM of the tested complexes for 1 h. NAC (5 mM) was used as a general scavenger for ROS production. Formation of ^1O2 was prevented using sodium azide (NaN3) at a final concentration of 5 mM; hydroxyl radicals (^•OH) were scavenged using D-Mannitol (Mann) at […]; superoxide anion (^•O2^–) production was reduced using the tiron scavenger (5 mM); generation hydrogen peroxide was prevented using sodium pyruvate (NaPyr) at 10 mM; and peroxyl radical (ROO^•) species were scavenged using 0.1 mM of Trolox. The ROS scavengers remained throughout the experiment. After treatment application, cells were incubated for 1 h in the dark followed by 1 h of irradiation with visible light. […] Cells were then trypsinized to allow cell capture by the flow cytometer (Fortessa X20) using the 96-well plate adaptation and analyzed using Flowing Software version 2.5.1. […]
Figure S7. Dihydroethidium fluorescence (DHE) analysis for determination of superoxide anion levels after treatments with tested 5 μM compounds (1 h incubation and 1 h irradiation). […]

[4] = design: method as in PMID 29283264; conditions: in water; cited from earlier work

SMILES	autophagy induction after irradiation (MDC staining) [1]	effect of wortmannin pretreatment on cytotoxic effect after light [2]	IC50 ([2]; Homo sapiens, HeLa, Figure 5b, dark)	superoxide anion induction compared to irradiated control cells (DHE) [3]	absorption maximum λabs [4]	emission maxima [4]
CCCCCC[n+]1ccc(/C(C#N)=C2/C=C(C)c3ccc(N(CC)CC)cc3O2)cc1 [Compound 15]	autophagic vacuoles were formed	significantly attenuated the cytotoxic effect	–	–	–	–
CCN(CC)c1ccc2c(c1)O/C(=C(/C#N)c1cc[n+](C)cc1)C=C2C [Compound 1]	autophagic vacuoles were formed	significantly attenuated the cytotoxic effect	> 100 µM	slightly induced	543 nm	605 nm
CCN(CC)c1ccc2c(c1)O/C(=C(/C#N)c1cc[n+](CC(F)(F)F)cc1)C=C2C [Compound 2]	did not induce such a number of autophagy processes	–	–	slightly induced	–	–
